# Measured values published in patent US20230133672A1, “FUSION POLYPEPTIDE COMPRISING GDF15 AND POLYPEPTIDE REGION CAPABLE OF O-GLYCOSYLATION” (LG CHEM, LTD., priority 2019, published 2023).
# Assay: Single administration: body weight change in DIO mice
# Assay type: in vivo, Mouse, C57BL/6J-DIO
# Conditions: single s.c. injection, mean
# Method: The pharmacological effect of the fusion polypeptides produced and purified in Example 1 above was tested in mice (C57BL/6J, 6-week-old, male, 100 mice; Raonbio).
# In the present example, DI0 mouse model (Mouse, C57BL/6J-DIO, male, 100 mice, 14-week-old (obesity feed feeding for 8 weeks)) in which obesity was induced by feeding a high-fat diet into the C57BL/6J mice for 8 weeks was used.
# The administration of the test substances HT-ID1-GDF15, HT-ID2-GDF15, and HT-ID3-GDF15 and the control substance Semaglutide (Bachem) was conducted from the next day after group separation, and the administration time was performed at 9 AM every day. Subcutaneous administration was conducted for all the control substance and test substances. For the administration route of the control substance and test substances, subcutaneous administration was selected depending on the clinically scheduled administration route.
# For all the control substance and test substances, the amount of the administration solution was set to 5 mL/kg and the administration liquid by individual was calculated on the basis of the recently measured body weight and it was administered by subcutaneous injection once on the start day of the test using a disposable syringe (1 mL). The test substances were administered only once. For comparison, the control group in which the control substance Semaglutide was administered was prepared, and the comparison group in which Semaglutide was administered was administered once a day, and all the administration was progressed from 9 AM.
# As for the observation, measurement and test schedule for the test groups, the administration start date was set to Day 0, and 7 days from the administration start date were set to one week of administration.
# The body weight of each mouse was measured on the day of the start of administration of the test substances (before administration), and thereafter, the body weight was measured every day (measured up to 9 days), and the amount of the administration solution of the test substances was determined on the basis of the most recently measured body weight.
# All the experimental results obtained in the present example were expressed as mean±standard error and tested using Prism5 (version 5.01). One-way analysis of variance (ANOVA) was performed on all data, and when significance was observed, Dunnett's test was performed to find out the test groups with a significant difference from the control group (significance level: two-sided 5% and 1%, 0.1%).
substance,measurement,setting,value
"HT-ID3-GDF15: Fusion polypeptide: His-Tag, TEV cleavage site, three IgD hinges, GS linker, GDF15 (SEQ ID NO: 3)","Body Weight (Group, % of initial)","Day 0, 10 nmol/kg",100 % of initial
same,"Body Weight (Group, % of initial)","Day 1, 10 nmol/kg",98 % of initial
same,"Body Weight (Group, % of initial)","Day 2, 10 nmol/kg",97 % of initial
same,"Body Weight (Group, % of initial)","Day 3, 10 nmol/kg",96 % of initial
same,"Body Weight (Group, % of initial)","Day 4, 10 nmol/kg",95 % of initial
same,"Body Weight (Group, % of initial)","Day 5, 10 nmol/kg",94 % of initial
same,"Body Weight (Group, % of initial)","Day 6, 10 nmol/kg",95 % of initial
same,"Body Weight (Group, % of initial)","Day 7, 10 nmol/kg",95 % of initial
same,"Body Weight (Group, % of initial)","Day 8, 10 nmol/kg",95 % of initial
same,"Body Weight (Group, % of initial)","Day 9, 10 nmol/kg",96 % of initial
